Assay results published in patent publication US20250339531A1, “DUX4 POLYPEPTIDES AND NUCLEIC ACIDS FOR TREATING INFLAMMATORY AND AUTOIMMUNE CONDITIONS” (Fred Hutchinson Cancer Center, priority 2021, published 2025).
“Also recorded” adds a separate entry of the source.

What was measured:
Assay type in all cases: cell-based, human
[1] = system: IFIH1, DDX58, cGAS and Type-1 IFN pathways; assay: ISG induction by IFNβ, poly(I:C), RIG-I ligand or cGAMP, RT-qPCR in MB135-iDUX4 cells; conditions: MB135iDUX4 cells ± doxycycline
Procedure: All myoblast experiments were conducted in immortalized MB135 or MB200 myoblast cell lines (isolated from a control or FSHD2 subject, respectively cultured in Ham's F-10 Nutrient Mix (Gibco) supplemented with 15% fetal bovine serum (Hyclone), 100 U/100 μg/ml penicillin/streptomycin (Gibco), 1 μM dexamethasone (Sigma), and 10 ng/ml recombinant human basic fibroblast growth factor (PeproTech). To differentiate the myoblasts to myotubes, media was changed to DMEM supplemented with 10 μg/ml insulin (Sigma) and 10 μg/ml transferrin (Sigma). Cell lines containing doxycycline-inducible transgenes were additionally cultured with 2 μg/mL puromycin (Sigma). Transgenes were induced with 1 μg/mL of doxycycline (Sigma) for 4 hours prior to other treatments for a total of 20 hrs. The Kitra-SRS cells (RRID:CVCL_YI69) were provided by Dr. H. Otani and Osaka University (Nakai et al., 2019) and were cultured in DMEM supplemented with 10% fetal bovine serum (Hyclone) and 100 U/100 μg/ml penicillin/streptomycin (Gibco). Biological replicates consisted of independent but parallel experiments, such as simultaneously stimulating three cell culture plates with IFNγ. Technical replicates consisted of repeat measurements of the same biological sample, such as loading the same biological sample in triplicate for analysis by RT-qPCR. […]

[2] = system: translational efficiency (TE); assay: Ribosome footprinting (Ribo-seq) paired with RNA-seq; conditions: DUX4 pulse+IFNG versus IFNG, 68 hours
Procedure: Ribo-seq was performed as described previously (Calviello et al., 2016) using two 70% confluent 15 cm plates of MB135iDUX4 myoblasts per treatment condition (n=3). MB135iDUX4 myoblasts were pulsed with or without doxycycline for 4 hours, incubated for 48 hours, supplemented with or without 50 ng/mL IFNG for 16 hours, and harvested at a terminal time point of 68 hours. To harvest, media was aspirated and each 15 cm plate of adherent cells was rinsed with 25 mL ice-cold PBS supplemented with 100 μg/mL cycloheximide (Sigma). After thorough removal of the PBS, plates were immersed in liquid nitrogen and placed on dry ice. Cells were lysed in mammalian polysome lysis buffer (20 mM Tris-HCl, pH 7.4, 150 mM NaCl, 5 mM MgCl2, 1 mM DTT, 100 μg/mL cycloheximide added fresh) supplemented with 1% Triton X-100 and 25 U/ml Turbo DNase (Ambion), transferred to wet ice, harvested by scraping and further lysed by trituration ten times through a 26-gauge needle. Lysates were cleared by centrifugation at 20,000×g for 10 min at 4° C., flash frozen in liquid nitrogen, and stored at −80° C. To isolate ribosome-protected RNA fragments, lysates were thawed, digested with 2.5 U/μL RNase I (Ambion) for 45 minutes at room temperature with gentle mixing, and treated with 0.65 U/μL SUPERaseIn RNase Inhibitor (Thermo Fisher Scientific) to stop nuclease activity. Ribosome complexes were isolated using MicroSpin S-400 HR Columns (GE Healthcare) and RNA extracted using the Direct-zol RNA Miniprep Kit (Zymo Research). The rRNA Removal Mix—Gold component of Illumina's TruSeq Stranded Total RNA Library Prep Gold kit was used to deplete rRNAs. Samples were precipitated using GlycoBlue Coprecipitant (Ambion) as carrier, 0.1 volume 3M sodium acetate and 3 volumes 100% Ethanol, incubated at −80° C. overnight, centrifuged for 45 minutes at 20,000×g at 4° C., and RNA pellet dissolved in nuclease-free ultrapure water. Ribosome-protected fragments were isolated by running samples on a 15% TBE-Urea gel with 10 bp DNA Ladder (Promega) and Marker-27nt and Marker-30nt (data not shown). […]

[3] = system: HLA-A, HLA-B, HLA-C, PSMB8, PSMB9, PSMB10 mRNA nuclear export; assay: Subcellular fractionation of nuclear and cytoplasmic mRNAs and proteins; conditions: DUX4 pulse, IFNG, 44 hours, data not shown
Procedure: MB135iDUX4 myoblasts were pulsed with doxycycline for 4 hours, incubated for 24 hours, supplemented with 50 ng/mL IFNG for 16 hours, and harvested at a terminal time point of 44 hours. Samples divided for whole-cell lysate (WCL) and subcellular fractionation were suspended in 300 μL ice-cold Cyto-lysis buffer (10 mM Tris pH 7.4, 10 mM NaCl, 0.2% NP-40, 1 mM DTT in nuclease free water). Subcellular fractionation samples were centrifuged at 650 RCF to pellet nuclei while cytoplasmic lysate remained in the supernatant. WCL, cytoplasmic, nuclear RNA and protein were harvested for RT-qPCR and immunoblotting, respectively.

[4] = system: MHC class I proteins (HLA-A/B/C); assay: Immunoblot of IFNG-induced MHC class I protein, continuous or pulsed protocol, MB135 myoblasts; conditions: 4 h doxycycline pulse, IFNG 28, 52 or 76 h later

## DUX4: human DUX4 protein SEQ ID NO:3 expressed from doxycycline inducible codon altered transgene SEQ ID NO:2
[1]
  suppression of ISG induction by innate immune stimuli (poly(I:C), short dsRNA/RIG-I ligand, cGAMP, IFNβ): blunted the induction of these genes by each of the stimulated pathways; also recorded: substantially blunted the ISG induction to all treatments; also recorded: pathways that rely on IRFs and STATs are both blocked; also recorded: suppressed the induction of a subset of the panel of ISG genes induced by each ligand; also recorded: CXCL9 was induced by IFNβ, poly(I:C), and the RIG-I ligand but not suppressed by DUX4
[2]
  transcripts with significantly reduced TE at the 5′UTR: 26.7%
  transcripts with significantly reduced TE at the TSS: 13.9%
  transcripts with significantly reduced TE within the first exon: 4.3%
[3]
  mRNA nuclear export and protein localization to the cytoplasm: did not disrupt
[4]
  duration of MHC class I protein suppression after a pulse: at Least Four Days; also recorded: becomes more pronounced between 24 and 72 hours after a pulse of DUX4; also recorded: for nearly four days; also recorded: suppressed MHC class I even four days later; also recorded: persists days after a DUX4 pulse
